From patent US20250230171A1 (MOMA Therapeutics, Inc., priority 2023, published 2025)
Where two headings read alike, the source gives them in different places.

Target: biotinylated Avi-POLθ[2-894] (Homo sapiens (Human), UniProt O75417)
Assay: POLθ ATPase assay (ADP-Glo)
Conditions: n=2, read-out: Biochemical ATPase ADPGlo IC50

Sequence of biotinylated Avi-POLθ[2-894] (O75417 2-894): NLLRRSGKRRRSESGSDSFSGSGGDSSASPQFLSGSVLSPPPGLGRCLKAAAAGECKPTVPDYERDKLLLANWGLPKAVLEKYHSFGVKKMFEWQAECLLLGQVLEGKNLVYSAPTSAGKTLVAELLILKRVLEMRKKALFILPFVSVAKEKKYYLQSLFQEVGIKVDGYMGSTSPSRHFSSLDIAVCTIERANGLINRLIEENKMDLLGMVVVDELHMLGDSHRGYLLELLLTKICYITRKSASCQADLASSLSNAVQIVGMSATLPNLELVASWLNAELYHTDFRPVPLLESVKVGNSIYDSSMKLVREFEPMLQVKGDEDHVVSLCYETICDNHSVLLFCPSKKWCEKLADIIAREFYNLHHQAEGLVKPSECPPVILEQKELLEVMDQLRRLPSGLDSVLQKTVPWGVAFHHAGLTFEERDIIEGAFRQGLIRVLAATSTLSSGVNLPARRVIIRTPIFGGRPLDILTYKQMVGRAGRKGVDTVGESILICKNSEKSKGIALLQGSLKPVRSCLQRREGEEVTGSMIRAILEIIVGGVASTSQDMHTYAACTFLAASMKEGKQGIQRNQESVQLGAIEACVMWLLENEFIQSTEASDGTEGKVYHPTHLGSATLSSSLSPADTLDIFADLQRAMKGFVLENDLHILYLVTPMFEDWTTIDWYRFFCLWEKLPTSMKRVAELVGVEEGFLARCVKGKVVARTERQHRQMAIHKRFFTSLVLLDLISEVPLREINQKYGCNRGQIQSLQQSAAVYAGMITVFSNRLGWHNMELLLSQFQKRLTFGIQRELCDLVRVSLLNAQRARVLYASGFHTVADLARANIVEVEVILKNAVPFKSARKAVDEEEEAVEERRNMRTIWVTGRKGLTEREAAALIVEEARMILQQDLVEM

| IC50 | IC50 (POLθ ATPase, ADP-Glo) | Molecule |
| --- | --- | --- |
| 150 to 900 nM | – | COc1ccc(C#N)cc1-c1cc(C)ncc1C(=O)Nc1nc2c(s1)CN(C(=O)c1ccccn1)CC2 [Example 247] |
| 150 to 900 nM | – | COc1ccc(C#N)cc1-c1cc(C)ncc1C(=O)Nc1nc2c(s1)CN(C(=O)C1CC1(F)F)CC2 (single isomer, unassigned) [Example 210] |
| 15 to 50 nM | – | COc1cnc(Cl)cc1-c1cc(C)ncc1C(=O)Nc1nc2c(s1)CN(C(=O)c1cnn(C)c1C)C2 [Example 87, 2′-chloro-N-(5-(1,5-dimethyl-1H-pyrazole-4-carbonyl)-5,6-dihydro-4H-pyrrolo[3,4-d]thiazol-2-yl)-5′-methoxy-6-methyl-[4,4′-bipyridine]-3-carboxamide] |
| 15 to 50 nM | – | COc1cnc(Cl)cc1-c1cc(C)ncc1C(=O)Nc1nc2c(s1)CN(C(=O)c1cncn1C)C2 [Example 30, 2′-chloro-5′-methoxy-6-methyl-N-(5-(1-methyl-1H-imidazole-5-carbonyl)-5,6-dihydro-4H-pyrrolo[3,4-d]thiazol-2-yl)-[4,4′-bipyridine]-3-carboxamide] |
| 1 to 15 nM | – | COc1cn2cncc2cc1-c1cc(C)ncc1C(=O)Nc1nc2c(s1)CN(C(=O)[C@H]1C[C@@H](OC(F)(F)F)C1)C2 [Example 97, 4-(6-methoxyimidazo[1,5-a]pyridin-7-yl)-6-methyl-N-(5-((1s,3s)-3-(trifluoromethoxy)cyclobutane-1-carbonyl)-5,6-dihydro-4H-pyrrolo[3,4-d]thiazol-2-yl)nicotinamide] |
| 150 to 900 nM | – | COc1cnc(Cl)cc1-c1cc(C)ncc1C(=O)Nc1nc2c(s1)CC(N1CCC(O)CC1)CC2 (racemic) [Example 109, (Racemic)-2′-chloro-N-(6-(4-hydroxypiperidin-1-yl)-4,5,6,7-tetrahydrobenzo[d]thiazol-2-yl)-5′-methoxy-6-methyl-[4,4′-bipyridine]-3-carboxamide] |
| 150 to 900 nM | – | COc1ccc(C#N)cc1-c1cc(C)ncc1C(=O)Nc1nc2c(s1)CN(C(=O)c1cccnc1)CC2 |
| 1 to 15 nM | – | COc1cnc(Cl)cc1-c1cc(C)ncc1C(=O)Nc1nc2c(s1)CN(C(=O)[C@H]1CC[C@H](O)CC1)C2 [Example 96, 2′-chloro-N-(5-((1r,4r)-4-hydroxycyclohexane-1-carbonyl)-5,6-dihydro-4H-pyrrolo[3,4-d]thiazol-2-yl)-5′-methoxy-6-methyl-[4,4′-bipyridine]-3-carboxamide] |
| 1 to 15 nM | – | COc1cnc(Cl)cc1-c1cc(C)ncc1C(=O)Nc1nc2c(s1)CN(C(=O)c1cn(C)nc1C(F)(F)F)C2 [Example 61, 2′-chloro-5′-methoxy-6-methyl-N-(5-(1-methyl-3-(trifluoromethyl)-1H-pyrazole-4-carbonyl)-5,6-dihydro-4H-pyrrolo[3,4-d]thiazol-2-yl)-[4,4′-bipyridine]-3-carboxamide] |
| – | 1 to 15 nM | COc1cnc(Cl)cc1-c1cc(C)ncc1C(=O)Nc1nc2c(s1)CN(C(=O)c1cccc3cncn13)C2 |
| 1 to 15 nM | – | COc1ccc(C#N)cc1-c1cc(C)ncc1C(=O)Nc1nc2c(s1)CN(C(=O)C1CC(C)C1)C2 (centres unmarked) [Example 189] |
| 1 to 15 nM | – | COc1cnc(Cl)cc1-c1cc(C)ncc1C(=O)Nc1nc2c(s1)CN(C(=O)C1CCC(O)(C(F)(F)F)CC1)C2 (centres unmarked) [Example 112] |
| ≥ 900 nM | – | COc1ccccc1-c1cc(C)ncc1C(=O)Nc1nc2c(s1)CN(C(=O)CN1CCOC1=O)C2 |
| 150 to 900 nM | – | COc1ccccc1-c1cc(C)ncc1C(=O)Nc1nc2c(s1)CN(C(=O)C1CS(=O)(=O)C1)C2 |
| 150 to 900 nM | – | COc1ccc(C#N)cc1-c1cc(C)ncc1C(=O)Nc1nc2c(s1)CN(C(=O)[C@@H]1CCCOC1)CC2 [Example 223] |
| 1 to 15 nM | – | COc1cnc(Cl)cc1-c1cc(C)ncc1C(=O)Nc1nc2c(s1)CN(C(=O)c1ncccc1O)C2 [Example 71, 2′-chloro-N-(5-(3-hydroxypicolinoyl)-5,6-dihydro-4H-pyrrolo[3,4-d]thiazol-2-yl)-5′-methoxy-6-methyl-[4,4′-bipyridine]-3-carboxamide] |
| 50 to 150 nM | – | COc1ccccc1-c1cc(C)ncc1C(=O)Nc1nc2c(s1)CN(C(=O)C1CCC1)C2 |
| 150 to 900 nM | – | COc1ccccc1-c1cc(C)ncc1C(=O)Nc1nc2c(s1)CN(C(=O)C1COCCO1)C2 (centres unmarked) |
| ≥ 900 nM | – | COc1ccccc1-c1cc(C)ncc1C(=O)Nc1nc2c(s1)CN(C(=O)Cn1cccn1)C2 |
| ≥ 900 nM | – | COc1ccccc1-c1cc(C)ncc1C(=O)Nc1nc2c(s1)CN(C(=O)CN1CCCC1=O)C2 |
| 150 to 900 nM | – | COc1ccccc1-c1cc(C)ncc1C(=O)Nc1nc2c(s1)CN(C(=O)c1cncnc1)C2 |
| ≥ 900 nM | – | COc1cnc(Cl)cc1-c1cc(C)ncc1C(=O)Nc1nc2c(s1)CC(N1CCCCC1)CC2 (racemic) [Example 110] |
| 1 to 15 nM | – | COc1ccc(C#N)cc1-c1cc(C)ncc1C(=O)Nc1nc2c(s1)CN(C(=O)[C@@H]1CC[C@H]1C)C2 |
| 150 to 900 nM | – | COc1ccccc1-c1cc(C)ncc1C(=O)Nc1nc2c(s1)CN(C(=O)c1cn(C)nn1)C2 |
| 150 to 900 nM | – | COc1ccccc1-c1cc(C)ncc1C(=O)Nc1nc2c(s1)CN(C(=O)c1cnnn1C)C2 |

| IC50 | IC50 (POLθ ATPase, ADP-Glo) | Molecule |
| --- | --- | --- |
| 150 to 900 nM | – | COc1ccc(C#N)cc1-c1cc(C)ncc1C(=O)Nc1nc2c(s1)CN(C(=O)C1CC1OC)CC2 (mixture of isomers) [Example 214, 4-(5-cyano-2-methoxyphenyl)-N-(5-(2-methoxycyclopropane-1-carbonyl)-4,5,6,7-tetrahydrothiazolo[5,4-c]pyridin-2-yl)-6-methylnicotinamide Mixture of isomers] |
| 1 to 15 nM | – | COc1cnc(Cl)cc1-c1cc(C)ncc1C(=O)Nc1nc2c(s1)CN(C(=O)N1CC(OC(F)F)C1)C2 |
| 1 to 15 nM | – | COc1cnc(Cl)cc1-c1cc(C)ncc1C(=O)Nc1nc2c(s1)CN(C(=O)c1cnccn1)C2 [Example 41, 2′-chloro-5′-methoxy-6-methyl-N-(5-(pyrazine-2-carbonyl)-5,6-dihydro-4H-pyrrolo[3,4-d]thiazol-2-yl)-[4,4′-bipyridine]-3-carboxamide] |
| 1 to 15 nM | – | COc1cnc(Cl)cc1-c1cc(C)ncc1C(=O)Nc1nc2c(s1)CN(C(=O)[C@H]1CCCCO1)C2 [Example 186] |
| ≥ 900 nM | – | COc1ccccc1-c1cc(C)ncc1C(=O)Nc1nc2c(s1)CN(C1CC1)C2=O [Example 352, N-(5-cyclopropyl-4-oxo-5,6-dihydro-4H-pyrrolo[3,4-d]thiazol-2-yl)-4-(2-methoxyphenyl)-6-methylnicotinamide] |
| ≥ 900 nM | – | COc1ccccc1-c1cc(C)ncc1C(=O)Nc1nc2c(s1)CN(C(=O)C1CCCCC1)CC2 |
| 150 to 900 nM | – | COc1ccccc1-c1cc(C)ncc1C(=O)Nc1nc2c(s1)CN(C(=O)C1C3COCC31)C2 (centres unmarked) |
| 150 to 900 nM | – | COc1ccccc1-c1cc(C)ncc1C(=O)Nc1nc2c(s1)CN(C(=O)C1CCCOC1)C2 (racemic) |
| – | 150 to 900 nM | COc1cnc(Cl)cc1-c1cc(C)ncc1C(=O)Nc1nc2c(s1)C[C@H](C(=O)N[C@H]1CC[C@H]1O)CC2 |
| 50 to 150 nM | – | COc1ccc(C#N)cc1-c1cc(C)ncc1C(=O)Nc1nc2c(s1)CN(S(=O)(=O)N1CCCC1)CC2 |
| 1 to 15 nM | – | COc1cnc(Cl)cc1-c1cc(C)ncc1C(=O)Nc1nc2c(s1)CN(C(=O)c1ccn(CC(F)F)n1)C2 [Example 51, 2′-chloro-N-(5-(1-(2,2-difluoroethyl)-1H-pyrazole-3-carbonyl)-5,6-dihydro-4H-pyrrolo[3,4-d]thiazol-2-yl)-5′-methoxy-6-methyl-[4,4′-bipyridine]-3-carboxamide] |
| 1 to 15 nM | – | COc1cnc(Cl)cc1-c1cc(C)ncc1C(=O)Nc1nc2c(s1)CN(S(=O)(=O)C1CC1)C2 [Example 234] |
| – | 150 to 900 nM | COc1cnc(Cl)cc1-c1cc(C)ncc1C(=O)Nc1nc2c(s1)C(C)N(C(=O)c1ccc(C(F)(F)F)nc1OC)C2 (single isomer, unassigned) [Example 1047, (S or R)-2′-chloro-5′-methoxy-N-(5-(2-methoxy-6-(trifluoromethyl)nicotinoyl)-6-methyl-5,6-dihydro-4H-pyrrolo[3,4-d]thiazol-2-yl)-6-methyl-[4,4′-bipyridine]-3-carboxamide] |
| – | 1 to 15 nM | COc1cnc(C(=O)N2Cc3nc(NC(=O)c4cnc(C)cc4-c4cc(Cl)ncc4OC)sc3C2)nc1 |
| ≥ 900 nM | – | COc1ccccc1-c1cc(C)ncc1C(=O)Nc1nc2c(s1)CN(C(=O)C1(C#N)CCOCC1)C2 |
| 50 to 150 nM | – | CCNS(=O)(=O)N1CCc2nc(NC(=O)c3cnc(C)cc3-c3cc(C#N)ccc3OC)sc2C1 |
| 15 to 50 nM | – | COc1ccccc1-c1cc(C)ncc1C(=O)Nc1nc2c(s1)CN(S(=O)(=O)C1CCC1)C2 |
| 150 to 900 nM | – | COC(=O)N1Cc2nc(NC(=O)c3cnc(C)cc3-c3ccccc3OC)sc2C1 |
| 150 to 900 nM | – | COc1ccccc1-c1cc(C)ncc1C(=O)Nc1nc2c(s1)CN(C(=O)c1ccccn1)C2 [Example 323] |
| 1 to 15 nM | – | COc1cnc(Cl)cc1-c1cc(C)ncc1C(=O)Nc1nc2c(s1)CN(C(=O)c1ncc(C)cn1)C2 [Example 34, 2′-chloro-5′-methoxy-6-methyl-N-(5-(5-methylpyrimidine-2-carbonyl)-5,6-dihydro-4H-pyrrolo[3,4-d]thiazol-2-yl)-[4,4′-bipyridine]-3-carboxamide] |
| 15 to 50 nM | – | COc1cnc(C)cc1-c1cc(C)ncc1C(=O)Nc1nc2c(s1)CN(C(=O)c1ccccn1)C2 [Example 108, 5′-methoxy-2′,6-dimethyl-N-(5-picolinoyl-5,6-dihydro-4H-pyrrolo[3,4-d]thiazol-2-yl)-[4,4′-bipyridine]-3-carboxamide] |
| 1 to 15 nM | – | COc1ccc(C#N)cc1-c1cc(C)ncc1C(=O)Nc1nc2c(s1)CN(S(=O)(=O)c1ccc(C)cn1)C2 |
| 150 to 900 nM | – | COc1cnc(Cl)cc1-c1cc(C)ncc1C(=O)Nc1nc2c(s1)CN(C(=O)C1CC(N(C)C)C1)C2 (centres unmarked) [Example 43, 2′-chloro-N-(5-(3-(dimethylamino)cyclobutane-1-carbonyl)-5,6-dihydro-4H-pyrrolo[3,4-d]thiazol-2-yl)-5′-methoxy-6-methyl-[4,4′-bipyridine]-3-carboxamide] |
| 150 to 900 nM | – | COc1cnc(Cl)cc1-c1cc(C)ncc1C(=O)Nc1nc2c(s1)C[C@H](NC(=O)[C@H]1C[C@@H](O)C1)CC2 (racemic) [Example 144] |

| Molecule | IC50 | IC50 (POLθ ATPase, ADP-Glo) |
| --- | --- | --- |
| N-(5-(1H-pyrazole-5-carbonyl)-5,6- dihydro-4H-pyrrolo[3,4-d]thiazol-2-yl)- 2′-chloro-5′-methoxy-6-methyl-[4,4′- bipyridine]-3-carboxamide [Example 86] | 1 to 15 nM | – |
